“Also recorded” adds a separate entry of the source.
Key:
HO-1 = HO-1 mRNA expression in RL-14 cells by real-time PCR; assay type: cell-based, human; settings: 10 µM, 24 h
β-MHC = β-MHC mRNA expression in RL-14 cells by real-time PCR; settings: 10 µM, 24 h
CYP1B1 [1] = settings: MROD and EROD, RL-14 cells
α-MHC = α-MHC mRNA expression in RL-14 cells by real-time PCR; settings: 10 µM, 24 h
adult rat cardiomyocytes = test: Adult rat cardiomyocyte viability by trypan blue assay; assay type: cell-based; settings: 18 h; for cell death: 10 µM, trypan blue; for cell death, concentration dependence: 1, 5 and 10 µM
BNP = BNP mRNA expression in RL-14 cells by real-time PCR; assay type: cell-based, human; settings: 10 µM, 24 h
CYP1B1 [2] = settings: RL-14 cells
[3] = RL-14 cell viability by MTT assay; assay type: cell-based, human; settings: human, RL-14 cardiomyocyte cells
[4] = In vitro drug release of DoxQ in PBS with 10% FBS at 37 °C, HPLC; assay type: in vitro ADME
[5] = test system: reactive oxygen species in RL-14 cells; test: Reactive oxygen species levels by DCF assay in RL-14 cells; assay type: cell-based, human; settings: 10 µM, 24 h
CYP3A4 = CYP3A4 (Homo sapiens, UniProt P08684)
Sequence of CYP3A4 (P08684 whole entry): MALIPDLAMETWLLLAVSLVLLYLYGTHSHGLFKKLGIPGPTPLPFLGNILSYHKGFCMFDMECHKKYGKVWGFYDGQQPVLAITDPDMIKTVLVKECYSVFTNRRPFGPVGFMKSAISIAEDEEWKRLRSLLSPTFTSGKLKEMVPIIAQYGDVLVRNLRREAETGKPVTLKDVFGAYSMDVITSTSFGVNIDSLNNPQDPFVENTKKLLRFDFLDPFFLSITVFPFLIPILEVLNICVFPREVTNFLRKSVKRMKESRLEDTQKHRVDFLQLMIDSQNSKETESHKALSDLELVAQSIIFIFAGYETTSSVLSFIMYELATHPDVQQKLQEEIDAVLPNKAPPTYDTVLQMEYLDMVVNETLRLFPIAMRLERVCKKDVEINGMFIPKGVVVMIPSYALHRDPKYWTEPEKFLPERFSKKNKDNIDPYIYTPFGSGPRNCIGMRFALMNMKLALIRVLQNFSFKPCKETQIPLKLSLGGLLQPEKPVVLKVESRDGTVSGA

[6] = test system: triple-negative murine breast cancer cell line; test: Cytotoxicity by resazurin blue assay; assay type: cell-based; settings: 72 h
GST-A1 = GST-A1 mRNA expression in RL-14 cells by real-time PCR; assay type: cell-based, human; settings: 10 µM, 24 h
Water solubility = assay type: physicochemical; settings: stated in words, no test described
[7] = test system: human cardiomyocytes (RL-14); test: RL-14 cell viability by MTT assay; assay type: cell-based; settings: 10 µM, 24 h, MTT
[8] = test system: MDCK-MDR cells (P-gp positive); test: Fluorescence imaging of doxorubicin uptake by MDCK-MDR cells; assay type: cell-based, canine

## COc1cccc2c1C(=O)c1c(O)c3c(c(O)c1C2=O)C[C@@](O)(C(=O)CO)C[C@@H]3O[C@H]1C[C@H](N)[C@H](O)[C@H](C)O1 [doxorubicin, Doxorubicin, reference compound]
HO-1
  HO-1 expression lower compared to cells treated with DoxQ: 1 fold
β-MHC
  β-MHC mRNA expression versus control, in words: induced
CYP1B1 [1]
  CYP1B1 catalytic activity, in words: induced
α-MHC
  α-MHC mRNA expression versus control, in words: induced
Adult rat cardiomyocytes
  cell death: ~ 22%
  cell death, concentration dependence: dose-response effect
BNP
  BNP mRNA expression versus control, in words: induced
CYP1B1 [2]
  CYP1B1 mRNA expression, in words: induced
[3]
  viability at 24 h, 10 µM: 52%

## COc1cccc2c1C(=O)c1c(O)c3c(c(O)c1C2=O)CC(O)(C(=O)CO)CC3OC1CC(NC(=O)CNC(=O)Oc2ccc(-c3oc4cc(O)cc(O)c4c(=O)c3O)cc2O)C(O)C(C)O1 (stereo not shown) [DoxQ, quercetin-Gly-Dox]
[4]; Fig. 3
  duration of in vitro release of doxorubicin from the conjugate: more than 4 days
[4]; aqueous medium, second-order kinetics
  release t1/2 of quercetin from the conjugate: approximately 100 h
[5]
  difference in ROS level versus free doxorubicin: ~ 234%
CYP3A4; 0.01, 0.1, 1, 10, 50 and 100 µM
  CYP3A4 inhibition (percentage relative to ketoconazole), in words: inhibited CYP3A4 at all the concentrations tested
CYP3A4; range tested 0.01-100 µM
  concentration with the highest CYP3A4 inhibition: 0.01 µM
Antioxidant assay kit; 1 and 10 mM
  antioxidant capacity compared to quercetin alone: significantly higher
Antioxidant assay kit; 10 and 50 mM
  antioxidant capacity compared to a mixture of doxorubicin and quercetin: significantly higher
Antioxidant assay kit; all concentrations studied (1, 10, 50)
  antioxidant effect compared to doxorubicin: significantly higher
β-MHC
  inhibition of induction of β-MHC mRNA expression compared to doxorubicin: 2.5 folds
[6]
  IC50 relative to doxorubicin alone or a mixture of doxorubicin and quercetin: more than twofold higher
  cytotoxicity compared to doxorubicin or mixture: substantially less toxic
[6]; given in words
  IC50: micromolar range
GST-A1
  lowering of GST-A1 mRNA expression in comparison to doxorubicin: 1.5 folds
CYP1B1 [1]
  CYP1B1 catalytic activity, in words: significantly inhibited; also recorded: reversed these effects
α-MHC
  inhibition of induction of α-MHC mRNA expression compared to doxorubicin: 1.5 folds
Adult rat cardiomyocytes
  cell death: ~ 17%
  cell death, concentration dependence: dose-response effect
Water solubility
  water solubility: very poor
BNP
  inhibition of induction of BNP mRNA expression compared to doxorubicin: 6 folds
CYP1B1 [2]
  CYP1B1 mRNA expression, in words: reversed these effects
CYP1B1 [2]; Fig. 15a
  inhibition of CYP1B1 mRNA expression compared to doxorubicin: more than 4 folds
[7]
  cell viability: 77%
  prevention of the cytotoxicity mediated by doxorubicin: ~ 25%
[8]; 50 nM, Fig. 4
  fluorescence signal in cells compared to free doxorubicin: higher
[8]; after 5-min treatment, Fig. 5a
  drug uptake (fluorescence signal, ImageJ) compared to free doxorubicin: significantly enhanced
